In patent publication US7407958B2, “2-pyridyl substituted imidazoles as ALK5 and/or ALK4 inhibitors” (SK Chemicals Co., Ltd., priority 2004, dated 2008):

Assays:
MEK1 = MEK1 (Homo sapiens, UniProt Q02750); assay: Protein kinase activity in vitro; assay type: biochemical
PKCα = PKCα (Homo sapiens, UniProt P17252); assay: Protein kinase activity in vitro; assay type: biochemical
PDK1 = PDK1 (Homo sapiens, UniProt O15530); assay: Protein kinase activity in vitro; assay type: biochemical
PKCη = PKCη (Homo sapiens, UniProt P24723); assay: Protein kinase activity in vitro; assay type: biochemical
Cdk2/Cyclin A = Cdk2/Cyclin A (Homo sapiens, UniProt P24941); assay: Protein kinase activity in vitro; assay type: biochemical
p38β = p38β (Homo sapiens, UniProt Q15759); assay: Protein kinase activity in vitro; assay type: biochemical
pp60^C-SRC = pp60^C-SRC (Homo sapiens, UniProt P12931); assay: Protein kinase activity in vitro; assay type: biochemical
Lck = Lck (Homo sapiens, UniProt P06239); assay: Protein kinase activity in vitro; assay type: biochemical
HER2 receptor = HER2 receptor (Homo sapiens, UniProt P04626); assay: Protein kinase activity in vitro; assay type: biochemical
Ca^2+/Calmodulin-Dep. II = assay: Protein kinase activity in vitro; assay type: biochemical
Lyn A = Lyn A (Homo sapiens, UniProt P07948); assay: Protein kinase activity in vitro; assay type: biochemical; settings: 10 μM (two lines printed)
PKCγ = PKCγ (Homo sapiens, UniProt P05129); assay: Protein kinase activity in vitro; assay type: biochemical
PKBα/Akt1 = PKBα/Akt1 (Homo sapiens, UniProt P31749); assay: Protein kinase activity in vitro; assay type: biochemical
PKCμ = PKCμ (Homo sapiens, UniProt Q15139); assay: Protein kinase activity in vitro; assay type: biochemical
Cdk1/Cyclin B = Cdk1/Cyclin B (Homo sapiens, UniProt P06493); assay: Protein kinase activity in vitro; assay type: biochemical
ALK5 = ALK5 (Homo sapiens, UniProt P36897, T204D); assay: biochemical
Method: The His-tagged, constitutively active ALK5 (T204D) and Smad3 full protein were expressed in insect cells using the Invitrogen BacNBlue baculovirus expression system. Expressed proteins were purified with Qiagen Ni-NTA resin column. The purified smad3 protein 200 ng was mixed with 100 μL of 0.1 M sodium bicarbonate coating buffer and coated into Flash-Plates by pipetting. Plates were covered and incubated at 4° C. for 16 hours. Then the plates were washed 3 times with 200 μL of coating buffer and allowed to block in 1% BSA in PBS at room temperature for 1 hour. The purified ALK5 protein 100 ng was mixed with 100 μL of reaction buffer containing 20 mM Tris-HCl (pH 7.4), 5 mM MgCl2, 1 mM CaCl2, 1 mM DTT, 1 μM ATP and 2 μCi ?-^32p-ATP, and 1 μL of each test compound of formula (I) prepared in 100% DMSO solution at different concentrations. The assay was then initiated with the addition of ALK5 reaction mixture into Smad3-coated Flash-Plates, followed by incubation at 30° C. for 3 hours. After incubation, the assay buffer was removed and washed 3 times with 200 μL of 10 mM sodium pyrophosphate solution. Then, the Flash-Plates were air-dried and counted on a Packard TopCount.

ERK1 = ERK1 (Homo sapiens, UniProt P27361); assay: Protein kinase activity in vitro; assay type: biochemical
PKA, non-selective = assay: Protein kinase activity in vitro; assay type: biochemical
JNK1α1 = JNK1α1 (Homo sapiens, UniProt P45983); assay: Protein kinase activity in vitro; assay type: biochemical
p38γ = p38γ (Homo sapiens, UniProt P53778); assay: Protein kinase activity in vitro; assay type: biochemical
PKCβ2 = PKCβ2 (Homo sapiens, UniProt P05771); assay: Protein kinase activity in vitro; assay type: biochemical
IKK-1 = IKK-1 (Homo sapiens, UniProt O15111); assay: Protein kinase activity in vitro; assay type: biochemical
JNK2α2 = JNK2α2 (Homo sapiens, UniProt P45984); assay: Protein kinase activity in vitro; assay type: biochemical
p38α = p38α (Homo sapiens, UniProt Q16539); assay: Protein kinase activity in vitro; assay type: biochemical
PKCζ = PKCζ (Homo sapiens, UniProt Q05513); assay: Protein kinase activity in vitro; assay type: biochemical
EGF Receptor = EGF Receptor (Homo sapiens, UniProt P00533); assay: Protein kinase activity in vitro; assay type: biochemical
Cdk5/p35 = Cdk5/p35 (Homo sapiens, UniProt Q00535); assay: Protein kinase activity in vitro; assay type: biochemical
IKK-2 = IKK-2 (Homo sapiens, UniProt O14920); assay: Protein kinase activity in vitro; assay type: biochemical
GSK-3β = GSK-3β (Homo sapiens, UniProt P49841); assay: Protein kinase activity in vitro; assay type: biochemical
PKCε = PKCε (Homo sapiens, UniProt Q02156); assay: Protein kinase activity in vitro; assay type: biochemical
PKCβ1 = PKCβ1 (Homo sapiens, UniProt P05771); assay: Protein kinase activity in vitro; assay type: biochemical
Insulin receptor = Insulin receptor (Homo sapiens, UniProt P06213); assay: Protein kinase activity in vitro; assay type: biochemical
CHK2 = CHK2 (Homo sapiens, UniProt O96017); assay: Protein kinase activity in vitro; assay type: biochemical
PKCδ = PKCδ (Homo sapiens, UniProt Q05655); assay: Protein kinase activity in vitro; assay type: biochemical
CHK1 = CHK1 (Homo sapiens, UniProt O14757); assay: Protein kinase activity in vitro; assay type: biochemical
p70^56k = p70^56k (Homo sapiens, UniProt P23443); assay: Protein kinase activity in vitro; assay type: biochemical
p38δ = p38δ (Homo sapiens, UniProt O15264); assay: Protein kinase activity in vitro; assay type: biochemical
Sequence of p38δ (O15264 whole entry): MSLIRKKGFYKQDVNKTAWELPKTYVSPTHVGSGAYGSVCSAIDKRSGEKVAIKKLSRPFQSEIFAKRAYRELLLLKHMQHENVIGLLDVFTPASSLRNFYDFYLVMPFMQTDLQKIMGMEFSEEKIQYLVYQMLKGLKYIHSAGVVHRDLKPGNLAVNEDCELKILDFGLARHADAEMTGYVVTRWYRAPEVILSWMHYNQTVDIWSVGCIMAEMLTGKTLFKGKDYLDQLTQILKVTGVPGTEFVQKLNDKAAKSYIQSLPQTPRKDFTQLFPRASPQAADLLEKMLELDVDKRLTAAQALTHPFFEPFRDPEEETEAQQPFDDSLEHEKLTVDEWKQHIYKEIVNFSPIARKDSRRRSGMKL

Sequence of PKCμ (Q15139 whole entry): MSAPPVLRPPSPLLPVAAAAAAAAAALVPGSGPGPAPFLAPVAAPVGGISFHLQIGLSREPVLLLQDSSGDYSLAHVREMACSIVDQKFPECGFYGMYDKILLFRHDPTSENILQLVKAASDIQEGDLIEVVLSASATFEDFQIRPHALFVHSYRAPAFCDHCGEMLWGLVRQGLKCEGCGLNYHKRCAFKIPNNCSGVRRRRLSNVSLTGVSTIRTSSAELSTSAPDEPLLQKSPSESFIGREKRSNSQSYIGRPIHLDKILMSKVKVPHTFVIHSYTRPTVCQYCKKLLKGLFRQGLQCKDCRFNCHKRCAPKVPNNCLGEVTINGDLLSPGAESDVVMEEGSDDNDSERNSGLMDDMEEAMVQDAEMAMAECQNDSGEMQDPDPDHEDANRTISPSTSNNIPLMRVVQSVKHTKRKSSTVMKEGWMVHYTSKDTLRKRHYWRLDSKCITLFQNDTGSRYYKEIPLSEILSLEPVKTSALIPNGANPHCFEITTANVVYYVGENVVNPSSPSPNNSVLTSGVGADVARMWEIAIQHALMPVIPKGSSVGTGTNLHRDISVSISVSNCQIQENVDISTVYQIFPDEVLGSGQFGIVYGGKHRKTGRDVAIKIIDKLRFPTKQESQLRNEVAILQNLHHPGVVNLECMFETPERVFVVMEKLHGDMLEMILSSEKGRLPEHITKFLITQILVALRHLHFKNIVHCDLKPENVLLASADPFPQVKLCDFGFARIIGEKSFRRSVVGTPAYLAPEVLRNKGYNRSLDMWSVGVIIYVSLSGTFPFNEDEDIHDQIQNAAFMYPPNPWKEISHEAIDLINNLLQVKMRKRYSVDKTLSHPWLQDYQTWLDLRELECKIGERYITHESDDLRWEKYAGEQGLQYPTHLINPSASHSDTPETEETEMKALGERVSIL
Sequence of p38α (Q16539 whole entry): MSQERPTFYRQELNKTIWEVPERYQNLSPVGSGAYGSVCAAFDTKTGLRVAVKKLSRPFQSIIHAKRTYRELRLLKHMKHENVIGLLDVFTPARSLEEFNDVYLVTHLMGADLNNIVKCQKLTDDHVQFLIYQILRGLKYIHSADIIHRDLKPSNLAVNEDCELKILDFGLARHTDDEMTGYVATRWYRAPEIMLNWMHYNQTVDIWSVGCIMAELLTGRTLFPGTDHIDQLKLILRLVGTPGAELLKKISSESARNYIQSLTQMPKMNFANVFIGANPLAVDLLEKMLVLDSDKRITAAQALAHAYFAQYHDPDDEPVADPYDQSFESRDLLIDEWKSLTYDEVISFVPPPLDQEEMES
Sequence of Lyn A (P07948 whole entry, species assumed): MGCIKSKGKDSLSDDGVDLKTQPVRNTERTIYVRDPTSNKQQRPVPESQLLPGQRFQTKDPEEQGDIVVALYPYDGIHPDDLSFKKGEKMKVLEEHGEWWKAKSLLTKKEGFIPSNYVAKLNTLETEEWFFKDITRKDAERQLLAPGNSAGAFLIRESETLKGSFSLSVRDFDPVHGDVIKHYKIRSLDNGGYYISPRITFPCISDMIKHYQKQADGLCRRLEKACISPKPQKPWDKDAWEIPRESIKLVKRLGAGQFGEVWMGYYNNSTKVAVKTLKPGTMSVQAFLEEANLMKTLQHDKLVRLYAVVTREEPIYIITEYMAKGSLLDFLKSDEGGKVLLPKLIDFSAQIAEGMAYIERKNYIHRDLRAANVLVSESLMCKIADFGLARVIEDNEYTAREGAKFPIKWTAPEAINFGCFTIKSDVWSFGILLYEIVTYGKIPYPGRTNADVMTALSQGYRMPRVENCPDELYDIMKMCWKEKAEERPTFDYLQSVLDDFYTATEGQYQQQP
Sequence of MEK1 (Q02750 whole entry, species assumed): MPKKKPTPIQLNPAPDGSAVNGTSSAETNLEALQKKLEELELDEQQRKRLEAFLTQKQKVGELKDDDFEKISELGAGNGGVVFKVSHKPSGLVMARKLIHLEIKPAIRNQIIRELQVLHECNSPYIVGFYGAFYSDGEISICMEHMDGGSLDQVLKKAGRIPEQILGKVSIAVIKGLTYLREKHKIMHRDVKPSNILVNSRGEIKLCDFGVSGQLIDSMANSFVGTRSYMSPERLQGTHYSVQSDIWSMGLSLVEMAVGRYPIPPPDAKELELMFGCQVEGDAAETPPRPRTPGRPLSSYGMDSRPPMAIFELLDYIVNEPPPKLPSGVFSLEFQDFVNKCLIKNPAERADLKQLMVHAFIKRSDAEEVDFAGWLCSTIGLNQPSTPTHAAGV
Sequence of JNK2α2 (P45984 whole entry): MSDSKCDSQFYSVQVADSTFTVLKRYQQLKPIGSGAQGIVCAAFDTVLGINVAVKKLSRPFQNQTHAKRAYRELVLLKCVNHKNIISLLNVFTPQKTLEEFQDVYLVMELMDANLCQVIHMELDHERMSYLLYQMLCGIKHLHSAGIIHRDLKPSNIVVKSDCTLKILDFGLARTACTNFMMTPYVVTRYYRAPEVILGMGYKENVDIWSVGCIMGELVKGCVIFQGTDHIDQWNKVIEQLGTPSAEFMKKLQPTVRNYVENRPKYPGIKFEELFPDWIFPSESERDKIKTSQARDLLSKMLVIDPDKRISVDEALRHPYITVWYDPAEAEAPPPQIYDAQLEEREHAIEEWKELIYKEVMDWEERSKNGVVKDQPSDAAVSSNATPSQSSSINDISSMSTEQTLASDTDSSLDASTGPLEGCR
Sequence of JNK1α1 (P45983 1-384 isoform P45983-2, species assumed): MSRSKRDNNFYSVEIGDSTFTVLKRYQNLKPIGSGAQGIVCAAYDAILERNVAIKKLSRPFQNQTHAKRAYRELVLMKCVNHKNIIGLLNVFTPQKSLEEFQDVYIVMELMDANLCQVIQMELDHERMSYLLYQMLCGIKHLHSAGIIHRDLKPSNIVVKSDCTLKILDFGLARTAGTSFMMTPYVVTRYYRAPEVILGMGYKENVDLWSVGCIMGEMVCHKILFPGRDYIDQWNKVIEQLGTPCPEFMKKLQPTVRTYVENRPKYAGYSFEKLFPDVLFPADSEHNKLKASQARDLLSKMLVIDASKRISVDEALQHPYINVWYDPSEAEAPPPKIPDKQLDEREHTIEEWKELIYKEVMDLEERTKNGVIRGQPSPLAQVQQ
Sequence of CHK2 (O96017 whole entry, species assumed): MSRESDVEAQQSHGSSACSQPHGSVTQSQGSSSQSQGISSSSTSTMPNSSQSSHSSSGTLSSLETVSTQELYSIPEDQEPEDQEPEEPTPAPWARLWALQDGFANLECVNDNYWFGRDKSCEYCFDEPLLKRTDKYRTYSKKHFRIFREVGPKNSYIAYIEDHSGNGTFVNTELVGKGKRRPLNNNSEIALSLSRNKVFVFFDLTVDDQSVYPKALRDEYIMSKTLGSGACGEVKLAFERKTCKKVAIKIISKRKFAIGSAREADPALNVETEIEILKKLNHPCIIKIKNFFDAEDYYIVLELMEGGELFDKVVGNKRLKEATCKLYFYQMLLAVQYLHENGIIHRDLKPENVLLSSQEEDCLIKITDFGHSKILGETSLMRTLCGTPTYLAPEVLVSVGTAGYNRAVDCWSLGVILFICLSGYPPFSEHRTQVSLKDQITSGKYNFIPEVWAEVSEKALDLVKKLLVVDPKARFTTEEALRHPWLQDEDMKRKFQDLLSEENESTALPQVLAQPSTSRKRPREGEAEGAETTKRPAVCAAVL
Sequence of ALK5 (P36897 34-503 T204D, species assumed): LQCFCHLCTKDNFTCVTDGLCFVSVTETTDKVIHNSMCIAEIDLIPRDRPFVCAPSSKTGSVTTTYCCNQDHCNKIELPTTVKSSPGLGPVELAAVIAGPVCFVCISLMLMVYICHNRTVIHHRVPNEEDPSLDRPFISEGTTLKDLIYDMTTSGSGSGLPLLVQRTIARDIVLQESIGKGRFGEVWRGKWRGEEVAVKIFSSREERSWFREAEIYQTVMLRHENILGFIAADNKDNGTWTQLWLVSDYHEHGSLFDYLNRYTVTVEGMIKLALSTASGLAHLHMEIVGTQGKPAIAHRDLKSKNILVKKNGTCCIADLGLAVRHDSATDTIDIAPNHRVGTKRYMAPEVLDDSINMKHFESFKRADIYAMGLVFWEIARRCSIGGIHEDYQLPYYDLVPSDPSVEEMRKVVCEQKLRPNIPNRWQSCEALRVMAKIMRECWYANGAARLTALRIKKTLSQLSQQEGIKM
Sequence of p70^56k (P23443 whole entry): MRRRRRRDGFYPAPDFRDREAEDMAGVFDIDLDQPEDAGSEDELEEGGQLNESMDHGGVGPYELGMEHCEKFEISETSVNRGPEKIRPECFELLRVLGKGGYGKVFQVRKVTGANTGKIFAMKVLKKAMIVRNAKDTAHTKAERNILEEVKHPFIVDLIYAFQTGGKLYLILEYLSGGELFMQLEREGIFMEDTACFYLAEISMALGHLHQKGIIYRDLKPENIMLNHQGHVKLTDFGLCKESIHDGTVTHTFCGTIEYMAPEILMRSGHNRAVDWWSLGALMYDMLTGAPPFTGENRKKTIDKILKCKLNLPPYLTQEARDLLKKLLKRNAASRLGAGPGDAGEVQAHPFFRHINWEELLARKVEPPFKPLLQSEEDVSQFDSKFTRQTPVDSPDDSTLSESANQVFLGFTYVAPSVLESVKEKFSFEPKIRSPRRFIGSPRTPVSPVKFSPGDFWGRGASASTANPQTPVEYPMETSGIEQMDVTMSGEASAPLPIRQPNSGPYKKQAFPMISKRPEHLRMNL

inhibition at 1 µM (MEK1; 1 μM): 4%
inhibition at 10 µM (MEK1; 10 μM): 66%
inhibition at 10 µM (PKCα): -6%
inhibition at 10 µM (PDK1): 3%
inhibition at 10 µM (PKCη): -6%
inhibition at 10 µM (Cdk2/Cyclin A): 6%
inhibition at 10 µM (p38β): 48%
inhibition at 10 µM (pp60^C-SRC): -3%
inhibition at 10 µM (Lck): 17%
inhibition at 10 µM (HER2 receptor): 11%
% inhibition at 10 μM (Ca^2+/Calmodulin-Dep. II): 1%
inhibition at 10 µM (Lyn A): 37%
% inhibition at 10 μM (Lyn A; 10 µM): 42%
inhibition at 10 µM (PKCγ): 3%
inhibition at 10 µM (PKBα/Akt1): 17%
inhibition at 1 µM (PKCμ; 1 μM): 31%
inhibition at 10 µM (PKCμ; 10 μM): 64%
inhibition at 10 µM (Cdk1/Cyclin B): -3%
IC50 (ALK5): 5.3 nM
inhibition at 10 µM (ERK1): 51%
% inhibition at 10 μM (PKA, non-selective): 27%
inhibition at 10 µM (JNK1α1): 11%
inhibition at 10 µM (p38γ): 15%
inhibition at 10 µM (PKCβ2): -2%
inhibition at 10 µM (IKK-1): 2%
inhibition at 1 µM (JNK2α2; 1 μM): 40%
inhibition at 10 µM (JNK2α2; 10 μM): 81%
inhibition at 1 µM (p38α; 1 μM): 25%
inhibition at 10 µM (p38α; 10 μM): 76%
inhibition at 10 µM (PKCζ): -9%
inhibition at 10 µM (EGF Receptor): 2%
inhibition at 10 µM (Cdk5/p35): -2%
inhibition at 10 µM (IKK-2): 1%
inhibition at 10 µM (GSK-3β): 21%
inhibition at 10 µM (PKCε): 1%
inhibition at 10 µM (PKCβ1): 10%
inhibition at 10 µM (Insulin receptor): 15%
inhibition at 10 µM (CHK2): 18%
inhibition at 10 µM (PKCδ): 3%
inhibition at 10 µM (CHK1): 10%
inhibition at 10 µM (p70^56k): -3%
inhibition at 10 µM (p38δ): -19%
Compound: Cc1cccc(-c2[nH]c(Cc3cccc(C(N)=O)c3)nc2-c2ccc3nccnc3c2)n1 [Example 41, 3-((5-(6-methylpyridin-2-yl)-4-(quinoxalin-6-yl)-1(3)H-imidazol-2-yl)methyl)benzamide]
